Assay results from PubChem BioAssay AID1508610 (The Scripps Research Institute Molecular Screening Center, 2020).
The source made the active and inactive calls. How the calls were made is not given here.

What follows are molecules tested against G-protein coupled receptor 151 (Homo sapiens) (UniProt Q8TDV0) (assay: GPR151 activator potency, dose response, cell-based (AID 1508610)). Details: cell-based GPR151 activation reporter.
Sequence of G-protein coupled receptor 151 (Homo sapiens) (Q8TDV0 whole entry, looked up): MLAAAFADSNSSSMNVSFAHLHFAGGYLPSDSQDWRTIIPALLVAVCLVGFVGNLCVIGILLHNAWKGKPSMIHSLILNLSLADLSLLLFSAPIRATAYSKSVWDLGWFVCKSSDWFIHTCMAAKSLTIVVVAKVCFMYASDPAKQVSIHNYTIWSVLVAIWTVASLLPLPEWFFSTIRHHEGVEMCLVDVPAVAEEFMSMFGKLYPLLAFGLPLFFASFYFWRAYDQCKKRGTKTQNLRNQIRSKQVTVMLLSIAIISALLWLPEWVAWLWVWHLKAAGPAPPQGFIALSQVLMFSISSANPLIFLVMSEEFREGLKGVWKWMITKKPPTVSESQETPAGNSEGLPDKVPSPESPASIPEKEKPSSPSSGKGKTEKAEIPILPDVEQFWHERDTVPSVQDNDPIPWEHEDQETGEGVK

SMILES | EC50
COc1ccc(/C=N/NC(=O)COc2cccc(C)c2)cc1O | > 28 µM (inactive)
O=C(COc1ccc(C(=O)NCCc2ccccc2)cc1)Nc1ccccc1F | > 28 µM (inactive)
CCC[n+]1c(/C=C2\Sc3ccccc3N2CC)ccc2ccccc21 | > 24.5 µM (inactive)
CCCCCCCCCCCCCC/C(C(=O)O)=C(\C)C(=O)O | > 28 µM (inactive)
O=C(CCn1nc(-c2ccccc2)c2ccccc2c1=O)NCc1ccccc1 | > 28 µM (inactive)
COc1ccccc1-c1nnc(NC(=O)c2ccc([N+](=O)[O-])s2)o1 | > 9.17 µM (inactive)
O=C1/C(=C\c2ccncc2)SC(=S)N1Cc1ccccc1 | inactive
O=C1NC(c2ccc(Cl)cc2Cl)Oc2ccccc21 (stereo not drawn) | > 28 µM (inactive)
S=c1nc2c(n[nH]1)c1ccccc1n2CCc1ccccc1 | > 33 µM (inactive)
COc1cc(OC)cc(C(=O)Nc2ccc3c(c2)OCO3)c1 | > 31.5 µM (inactive)
CCOC(=O)c1c(NC(=O)C(C)Sc2cn(C)c3ccccc23)sc2c1CCCCC2 (stereo not drawn) | inactive
COc1ccc(/C=C/C(=O)Nc2ccccc2)cc1 | > 32.6 µM (inactive)
O=C(c1cccs1)N1CCN=C1SCc1cccc([N+](=O)[O-])c1 | > 28 µM (inactive)
C=CCOc1ccc(C(=O)N(Cc2nc(-c3ccc(OC)c(OC)c3)no2)C(C)C)cc1 | > 28 µM (inactive)
COc1ccc(Br)cc1C(=O)NCC1COc2ccccc2O1 (stereo not drawn) | > 28 µM (inactive)
Cn1c(=O)[nH]c2nnc(-c3ccc(F)cc3)nc2c1=O | > 28 µM (inactive)
O=C1CCCN1CCn1cnc2c(NCCOc3ccccc3)nc(N3CCc4ccccc4C3)nc21 | > 27.9 µM (inactive)
Fc1ccc(-c2cnc(N3CCC4(CC3)OCCO4)nc2)cc1 | > 28 µM (inactive)
CCOC(=O)c1cc(C)n(CCc2ccccc2)c1C | > 39.1 µM (inactive)
CCOc1ccccc1CN1CCN(Cc2cccc(OC)c2)CC1CCO (stereo not drawn) | > 28 µM (inactive)
COc1ccc(C(=O)N/N=C/c2ccc(O)cc2O)cc1OC | > 28 µM (inactive)
Cc1c(C(=O)NCc2ccco2)oc2ccc(S(=O)(=O)N(C)C3CCCCC3)cc12 | > 28 µM (inactive)
O=[N+]([O-])c1ccc(NS(=O)(=O)Cc2ccccc2)c([N+](=O)[O-])c1 | > 28 µM (inactive)
Cc1c(C(=O)Nc2cc(Sc3ccc(F)cc3)cc([N+](=O)[O-])c2)sc2ncn(Cc3ccccc3F)c(=O)c12 | > 20.2 µM (inactive)
Cc1cccc(-n2ncc3c(Nc4ccc(F)cc4F)ncnc32)c1 | > 26.9 µM (inactive)

SMILES | EC50
Cn1c(=O)c2c(SCCC3OCCO3)nc(C3CCCCC3)nc2n(C)c1=O | > 27.6 µM (inactive)
O=C(/C=C/c1cccc([N+](=O)[O-])c1)NC1C2CC3CC(C2)CC1C3 (stereo not drawn) | > 34 µM (inactive)
Cc1nn(Cc2ccc(F)cc2)c(C)c1N | > 28 µM (inactive)
N=C1c2ccccc2CN1CC(=O)c1ccccc1 | > 27.4 µM (inactive)
CCc1ccccc1NC(=S)N(CCc1ccc(OC)c(OC)c1)Cc1cccnc1 | > 24.3 µM (inactive)
O=C(Oc1ccc2cc(Br)ccc2c1)c1ccco1 | > 25.9 µM (inactive)
O=C(Cn1c2c(c(-c3ccccc3Cl)cc1=O)CCC2)NC1CCCC1 | > 28 µM (inactive)
CCC[C@@H]1NC(=O)[C@@H]2C[C@H](NCc3cc(C)ccc3F)CN2C1=O | > 28 µM (inactive)
N#C/C(=C\c1c(Oc2ccc(Cl)cc2Cl)nc2ccccn2c1=O)C(N)=O | > 27.9 µM (inactive)
Cc1ccc(-c2cnn(-c3ccc(C(=O)O)cc3)c2)cc1 | > 28 µM (inactive)
O=C(O)CCn1cc(C=C2C(=O)NC(=O)NC2=O)c(-c2ccc(Br)cc2)n1 | > 28 µM (inactive)
COc1ccc(N(CC(=O)Nc2ccccc2-c2ccccc2)S(C)(=O)=O)cc1 | > 28 µM (inactive)
COc1ccc(NS(=O)(=O)c2cccc3c(S(=O)(=O)Nc4ccc(OC)cc4OC)cccc23)c(OC)c1 | > 20.8 µM (inactive)
CNc1nc2c(-c3ccc(Cl)cc3)nnn2c2ccccc12 | > 28 µM (inactive)
Cc1ccc(Nc2nc(N(C)C)nc3c2cnn3C)cc1C | > 28.4 µM (inactive)
CC1CC(=O)N(C)c2ccccc2S1 (stereo not drawn) | > 28 µM (inactive)
O=C1CCN(C(=O)c2ccc(-c3nc4ccccc4s3)s2)CC1 | > 29.5 µM (inactive)
CC(C)c1ccc(Cn2ccc3c4c(N)nc(NC5CC5)nc4ccc32)cc1 | 3.86 µM
CCOc1cc(/C=c2/sc3n(c2=O)CCN=3)ccc1O | > 40 µM (inactive)
CCC(=O)Oc1ccc2cc(-c3ccc(OC)c(OC)c3)c(=O)oc2c1 | > 28.5 µM (inactive)
COc1cccc(NC(=O)c2cc(C3CC3)[nH]n2)c1 | > 28 µM (inactive)
C/C(=N\NC(=O)Cn1nnc(-c2ccccc2)n1)c1nonc1C | > 28 µM (inactive)
C=CCn1c(C)cc(C2=NNC(=NCC)SC2)c1C | > 28.7 µM (inactive)
COC(=O)C(NC(=O)c1cccc(Cl)c1)(Nc1ccc(Cl)cn1)C(F)(F)F (stereo not drawn) | > 28 µM (inactive)
CCC(C(=O)OC)n1cnc2scc(-c3cccc([N+](=O)[O-])c3)c2c1=O (stereo not drawn) | > 28 µM (inactive)

SMILES | EC50
CCCN1C(=O)C[n+]2ccccc2C1C(=O)Nc1ccccc1C (stereo not drawn) | > 28 µM (inactive)
Cn1c(=O)[nH]c(=O)c2c1nc(N1CCN(c3cccc(Cl)c3)CC1)n2Cc1ccccc1 | > 22.4 µM (inactive)
Cc1ccc2nc(NC(=O)C34CC5CC(C3)CC(n3cnc([N+](=O)[O-])n3)(C5)C4)sc2c1 | > 28 µM (inactive)
O=Cc1cccc(OCc2ccc(C(=O)O)cc2)c1 | > 28 µM (inactive)
CCOC(=O)c1c(NC(=O)CN2CC(C)OC(C)C2)sc(C)c1C (stereo not drawn) | > 31.3 µM (inactive)
O=C(O)c1ccc2nc(-c3ccccc3)[nH]c2c1 | > 26.3 µM (inactive)
CCN1CCN(Cc2ccc(NC(=O)Nc3ccccc3C)cc2)CC1 | > 28 µM (inactive)
O=C(Nc1nc(-c2cc3ccccc3o2)cs1)c1cc2ccccc2oc1=O | > 24.7 µM (inactive)
COc1ccccc1N(CC(=O)Nc1ccccc1C(=O)NCC(C)C)S(C)(=O)=O | > 28 µM (inactive)
CC(=O)c1c(C)[nH]c(C(=O)N2CCN(c3ccccc3)CC2)c1C | > 28 µM (inactive)
COc1ccccc1OCCCN1C(=O)C(=O)c2cc(Br)cc(C)c21 | > 28 µM (inactive)
O=C(O)CCCN=C1CCc2ccccc2N1 | > 43.2 µM (inactive)
COc1cccc(-c2ccc(SCC(=O)Nc3ccc4c(c3)OCCO4)nn2)c1 | > 28.7 µM (inactive)
COC(=O)CN1C(=O)S/C(=C\c2cc(Br)c(OC)c(OC)c2)C1=O | > 28 µM (inactive)
Cc1ccc(-c2c(Nc3ccc(Cl)cc3)c(=O)c2=O)cc1 | > 28 µM (inactive)
CCOc1cc(OCC)cc(C(=O)Nc2ccc(Br)cn2)c1 | > 28 µM (inactive)
COc1ccc(CCNc2ncnc3c2oc2ccccc23)cc1OC | > 27.6 µM (inactive)
O=C1[C@H]2[C@H]3[C@H](O)[C@H](O)C/C(=N\OCc4ccccc4)[C@H]3CC[C@H]2C(=O)N1C1CCCCC1 | inactive
Clc1ccccc1/C=C/c1nc(-c2ccccn2)no1 | > 28 µM (inactive)
CCOC(=O)c1c(C)c(C(=O)NCCC(C)C)c(C)n1C | > 28 µM (inactive)
O=C(O)c1ccc(/C=C2\SC(=S)N(CCS(=O)(=O)O)C2=O)cc1 | > 28.5 µM (inactive)
COc1cc(Nc2ccnc(Nc3ccc(N4CCOCC4)cc3)n2)cc(OC)c1OC | > 28.2 µM (inactive)
CC1CCCCN1Cc1nc2c(c(=O)n(C)c(=O)n2C)n1CC(N)=O (stereo not drawn) | > 28 µM (inactive)
[O-]/[N+](=C\c1ccncc1)c1ccc(Cl)cc1 | > 28.9 µM (inactive)
NC(=O)C1CCN(C(=O)c2ccc3nc(N4CCCCC4)sc3c2)CC1 | > 28 µM (inactive)

SMILES | EC50
COc1ccc(-c2ccc(C(=O)Nc3ccc(NC(C)=O)cc3)s2)cc1 | > 26.6 µM (inactive)
NC(=O)c1ccsc1NC(=O)/C=C/c1ccccc1 | > 26.7 µM (inactive)
COc1ccc(-c2cnn(-c3ccc(C(=O)O)cc3)c2)cc1 | > 28 µM (inactive)
CC(=O)Oc1ccccc1N1C(=O)c2cccc([N+](=O)[O-])c2C1=O | > 35.6 µM (inactive)
Cn1c(=O)c2c(nc(N3CCCCCC3)n2CCc2ccccc2)n(C)c1=O | > 27.9 µM (inactive)
Cc1ccc(-c2nc(-c3ccccn3)no2)cc1 | > 31.3 µM (inactive)
C1=Nc2ccccc2SC(c2cccnc2)=C1 | > 28.2 µM (inactive)
CC(C)N(CCNc1nc(N2CCC(N3CCOCC3)CC2)nc2c1ncn2C1CCCCC1)C(C)C | > 29.5 µM (inactive)
COc1cccc(-c2ccc(=O)n(CC(=O)Nc3ccc(Cl)c(C(F)(F)F)c3)n2)c1 | > 28 µM (inactive)
CCN(CC)C(=S)SCCC(=O)NC(=O)Nc1ccc(F)cc1 | > 28 µM (inactive)
CC[C@@H](C(=O)[C@@H](C)[C@@H](O)[C@H](C)CCc1ccc(C)c(O)c1C(=O)O)[C@H]1O[C@](CC)([C@H]2CC[C@](O)(CC)[C@H](C)O2)C[C@@H]1C | > 28 µM (inactive)
Cc1nc2c(C(=O)NCc3ccccn3)cnn2c(C)c1Cc1cccc(Cl)c1 | > 29.5 µM (inactive)
O=C(O)c1cccc(COc2ccc3ccccc3c2)c1 | > 28 µM (inactive)
O=C(NCc1ccc(Cl)cc1)C1C2C=CC3(CN(Cc4ccccc4)C(=O)C13)O2 (stereo not drawn) | > 25.1 µM (inactive)
CC(=O)c1cccc(NC(=O)CC2S\C(=N/N=C/C=C/c3ccccc3)NC2=O)c1 (stereo not drawn) | > 28 µM (inactive)
O=C1N(CN2CCC3(CC2)OCCO3)c2ccccc2C12OCCCO2 | > 28 µM (inactive)
C/C(=C\c1ccccc1)C(=O)Nc1ccccc1C(=O)O | > 31.9 µM (inactive)
COc1ccccc1CN[C@H]1C[C@H]2C(=O)N[C@@H](CC(C)C)C(=O)N2C1 | > 28 µM (inactive)
O=C(COc1ccc(Cl)cc1Cl)Nc1ncn[nH]1 | > 28 µM (inactive)
COc1cc(Br)ccc1OCC(=O)N/N=C/c1ccc([N+](=O)[O-])cc1 | > 28 µM (inactive)
CCOc1ccc(NS(=O)(=O)c2ccc3c(c2)n(C)c(=O)n3C)cc1 | > 28 µM (inactive)
Nc1cccc(-c2nc3ccc(N)cc3s2)c1 | > 36 µM (inactive)
CCOCCCNC(=O)CSc1ncccc1-c1nc2cc(C)c(C)cc2[nH]1 | > 28 µM (inactive)
